This note sets out measurements from patent US20230279346A1, “METHODS OF DIFFERENTIATION TO NEURONAL CELLS AND KITS THEREFOR” (priority 2016, published 2023).

One data set has as its system iPSC-derived NSCs. Briefly: Differentiation of iPSC-derived NSCs, phase images and NESTIN/DCX staining. The class given is cell-based, human. The note with it: 0.1 micromolar. The source says:
Human induced pluripotent stem cells were derived from human fibroblasts using the CYTOTUNE™-iPS 2.0 Sendai Reprogramming Kit (Cat. No. A16517, INVITROGEN™, a part of Thermo Fisher Scientific, Waltham Mass.) and were induced to neural stem cells (NSCs) using the xeno free version of the GIBCO™ PSC Neural Induction Medium (Cat. No. A1647801, Thermo Fisher Scientific, Waltham Mass.).
To differentiate the NSCs into neuronal cells, cryo-preserved iPSC-derived NSCs were recovered and NSC passage three cells were plated on a 24 well plate (Cat. No. 087721, Thermo Fisher Scientific, Waltham Mass.) coated with human laminin (Cat. No. L6274, Sigma-Aldrich, St. Louis Mo.) at a density of 1˜5×10^4 cells/cm2. The cultures were maintained in neuronal differentiation medium containing NEUROBASAL™ Medium (Cat. No. 21103, Thermo Fisher Scientific, Waltham Mass.), 2% B27 Xeno Free Supplement (Cat. No. A1486701, Thermo Fisher Scientific, Waltham Mass.), 200 micromolar ascorbic acid (Cat. No. A8960, Sigma-Aldrich, St. Louis Mo.) with or without the gamma-secretase inhibitor Compound E (0.1 micromolar, Cat. No. 565790, EMD Millipore, Billerica Mass.). Every 2-3 days, medium was replenished with respective medium.
[…] No. 48-1200, Thermo Fisher Scientific, Waltham Mass.) and the neural stem cell marker NESTIN (Monoclonal, Cat. No. 611658, BD Biosciences, Franklin Lakes N.J.) according to the manufacturers' protocols.

Another data set deals with NSC cultures. Briefly: CYQUANT Direct Cell Proliferation Assay. The class given is cell-based. Here is the method:
The proliferation and electrophysiology of cells resulting from differentiation in the presence of Compound E were compared to NSC control cultures. NSC cultures were plated at 20,000 cells per well on Day 0.
The CYQUANT™ Direct Cell Proliferation Assay (Molecular Probes Cat. No. C35011, Eugene Oreg.) was used to provide quantitation of proliferation at Day 4 and Day 7 of culture.

Data set [1] has as its system primary rat cortical neuronal cells. Briefly: Differentiation of primary rat cortical neuronal cells, GFAP and HuC&D staining. The class given is cell-based. The note with it: two weeks of differentiation. The text has this:
Cryopreserved primary rat cortical neuronal cells (Cat. No. A1084001, Thermo Fisher Scientific, Waltham Mass.), which had been isolated from rodent embryonic brain, were thawed and plated on poly-D-lysine 96-well plates (Cat. No. 08-774-255, Thermo Fisher Scientific, Waltham Mass.) coated with laminin (Cat. No. 23017, Thermo Fisher Scientific, Waltham Mass.) at a density of 8×10^4 cells/cm2. The culture medium was neuronal differentiation medium containing NEUROBASAL™ Medium (Cat. No. 21103, Thermo Fisher Scientific, Waltham Mass.), 2% B27 Supplement (Cat. No. 17504, Thermo Fisher Scientific, Waltham Mass.), 1% GLUTAMAX™ Supplement (Cat. No. 35050, Thermo Fisher Scientific, Waltham Mass.) without or with gamma secretase inhibitor Compound E. Every 2-3 days, half spent medium was removed from each well of the culture plates and the same volume of fresh medium was added into each well. At two weeks of differentiation, cells were fixed with 4% paraformaldehyde and stained with antibodies against neuronal marker HuC&D and astroglial marker glial fibrillary acidic protein (GFAP).

Data set [2] deals with H9 ESC-derived NSCs. Description: Long-term maintenance of differentiated neuronal cells. The class given is cell-based, human. The note with it: 0.2 micromolar; without inhibitor cells detached at three weeks. The source says: (§1) To differentiate the NSCs into neuronal cells, cryo-preserved H9 ESC-derived NSCs were thawed and plated on poly-D-lysine 96-well plates (Cat. No. 08-774-255, Thermo Fisher Scientific, Waltham Mass.) coated with laminin (Cat. No. 23017, Thermo Fisher Scientific, Waltham Mass.) at a density of 5×10^4 cells/cm2. The cultures were maintained in the neuronal differentiation medium containing NEUROBASAL™ Medium (Cat. No. 21103, Thermo Fisher Scientific, Waltham Mass.), 2% B27 Supplement (Cat. No. 17504, Thermo Fisher Scientific, Waltham Mass.), 1% GLUTAMAX™ Supplement (Cat. No. 35050, Thermo Fisher Scientific, Waltham Mass.) and 200 micromolar ascorbic acid (Cat. No. A8960, Sigma-Aldrich, St. Louis Mo.) with or without the gamma-secretase inhibitor Compound E (0.2 micromolar, Cat. No. 565790, EMD Millipore, Billerica Mass.). Every 2-3 days, half spent medium was removed from each well of the culture plates and the same volume of fresh medium was added into each well.
For this study, the differentiation of H9 ESC-derived NSCs was the same as for Example 2. Without presence of the gamma secretase inhibitor during differentiation, neuronal cells detached from the culture plate at three weeks after differentiation as shown by the image of FIG. 7A. This effect may be due to the very high density of proliferated neural stem cells present. […]

Data set [3] has as its system H9 ESC-derived NSCs. Briefly: EdU incorporation proliferation assay (CLICK-IT EdU). The class given is cell-based, human. The note with it: Day 6 of differentiation, EdU 24 h; 0.2 micromolar. Here is the method:
(§2) Differentiation of H9 ESC-derived NSCs was the same as for Example 2. At Day 6 of differentiation, cells were incubated with the nucleoside thymidine analog EdU for 24 h. EdU is incorporated into DNA during active DNA synthesis with the result that proliferating cells become labeled. EdU positive cells were detected using the CLICK-IT™ EdU Alexa FLUOR™ 488 HCS Assay (Cat. No. C10350, Thermo Fisher Scientific, Waltham Mass.) according to the manufacturer's protocols. Cells were then fixed with 4% paraformaldehyde and stained with antibodies against the apoptotic cell death marker caspase 9 (polyclonal, Cat. No. PA5-16358, Thermo Fisher Scientific, Waltham Mass.) according to the manufacturer's protocol.

Data set [4] relates to H9 ESC-derived NSCs. Description: Cell clump area after neuronal differentiation (INCUCYTE ZOOM System). The class given is cell-based, human. The note with it: for cell clumping vs control group (cell clump area, FIG. 6): two weeks, Compound E 0.2, YO-01027 0.3, LY411575 0.25, MK-0752 20 micromolar, p<0.01.
Description: Also, at the end of that two week period of differentiation, the area of cell clumps was calculated using the [sequence] ZOOM™ System (Essen BioScience, Ann Arbor Mich.) by defining the area of cell mass ≥10,000 μm^2 as a cell clump.
(§3) Cells cultured in differentiation medium without the presence of the gamma-secretase inhibitor served as a control. In the test groups, cells were separately differentiated in the presence of Compound E at 0.2 micromolar, YO-01027 at concentrations of 0.3 micromolar, 1.5 micromolar and 7.5 micromolar, LY411575 at concentrations of 0.01 micromolar, 0.05 micromolar, 0.25 micromolar, 0.5 micromolar, 1.0 micromolar and 2.0 micromolar, and MK-0752 at concentrations of 0.8 micromolar, 4 micromolar, 20 micromolar, 40 micromolar and at 80 micromolar. Eight wells were tested for each concentration of each inhibitor.
At the end of a two week period of differentiation, the area of cell clumps was calculated for each test well using the [sequence] ZOOM™ System (Essen BioScience, Ann Arbor Mich.) by defining the area of cell mass ≥10,000 μm2 as a cell clump and the data plotted in FIG. 6.
In data set [5] the test system is H9 ESC-derived NSCs. Briefly: Immunofluorescent image analysis: cells positive for HuC/D and negative for SOX1. The class given is cell-based, human.
Source text: as §3
For data set [6], the system named is H9 human ESC-derived NSCs. Briefly: Differentiation of H9 ESC-derived NSCs, phase-contrast images and MAP2/SOX1 staining. The note with it: Day 14; 0.2 micromolar. The class given is cell-based.
Source text: as §1
At two weeks of NSC differentiation into neuronal cells, cells were fixed with 4% paraformaldehyde and stained with antibodies against neuronal marker MAP2 (polyclonal, Cat. No. PA5-17646, Thermo Fisher Scientific, Waltham Mass.) and neural stem cell marker SOX1 (polyclonal, Cat. No. AF3369, R&D Systems, Minneapolis Minn.) according to the manufacturers' protocols.

Data set [7] concerns H9 ESC-derived NSCs. Briefly: Caspase 9 staining for apoptotic cell death. The class given is cell-based, human. The note with it: six days of differentiation; 0.2 micromolar. Here is the method: as §2
Data set [8] relates to H9 ESC-derived NSCs. Briefly: Cell toxicity during differentiation of NSCs. The class given is cell-based, human. The note with it: 160 micromolar.
Source text: as §3
At the end of a two week period of differentiation, the area of cell clumps was calculated for each test well using the [sequence]

For `C[C@H](NC(=O)Cc1cc(F)cc(F)c1)C(=O)N[C@H]1N=C(c2ccccc2)c2ccccc2N(C)C1=O` [Compound E, (S,S)-2-[2-(3,5-difluorophenyl)-acetylamino]-N-(1-methyl-2-oxo-5-phenyl-2-,3-dihydro-1H-benzo[e][1,4]diazepin-3-yl)-propionamide], in the data set on iPSC-derived NSCs (Day 5), the “neurite outgrowth (phase-contrast)” value is on record as “extended neurite outgrowth”. In addition, the “neuronal phenotype (DCX stain)” value in the data set with iPSC-derived NSCs (Day 7) is recorded as “most of the cells present have adopted a neuronal phenotype”. Also, the “proliferation of NESTIN positive cells” value with iPSC-derived NSCs (Day 7) was “substantially retarded”. Moreover, the proliferating progenitor cells entry in the data set with iPSC-derived NSCs (Day 14) was “fewer proliferating progenitor cells are present”. In addition, the “reduction in cell count vs control culture” value in the data set with NSC cultures (Day 4) is on record as roughly 2.5 fold. Also, the “relative fluorescence units (cell proliferation)” value in the data set with NSC cultures (Day 4, control 0.93) stood at 0.36 RFU; in the data set on NSC cultures (Day 7, control 2.94) it was 0.55 RFU; in the data set with NSC cultures (Day 14, control 18.7), 0.41 RFU; in the data set on NSC cultures (Day 21, control 21.5) it was 0.30 RFU. Also, the “increase in RFU at Day 7 compared to Day 4” value with NSC cultures (Day 7 vs Day 4) is recorded as roughly 1.5 fold. Further, the GFAP positive astrocytes entry in data set [1] was “essentially eliminated”. The “time differentiated neuronal cells can be maintained in culture” value in the data set with H9 ESC-derived NSCs [2] is “at least five weeks”. Besides, the “proliferation of neural stem cells (EdU positive cells)” value in the data set with H9 ESC-derived NSCs [3] is “substantially arrested”. In addition, in the data set with H9 ESC-derived NSCs [4] (Compound E 0.2 micromolar, two weeks of differentiation, cell mass >=10,000 μm2 counted as clump, vs without inhibitor), the “reduction in cell clumping” value was determined as 90%. The “cell clumping vs control group (cell clump area, FIG. 6)” value (from here on “cell clumping vs control group”) in the data set with H9 ESC-derived NSCs [4] is “significant reduction in cell clumping”. Moreover, the “percentage of cells co-stained positive for HuC/D and negative for SOX1” value (shortened to “percentage of cells co-stained positive”) with H9 ESC-derived NSCs [5] (at 0.2 micromolar) is 74.9%. The “cell clump formation (phase-contrast image)” value in [6] is given as “without formation of cell clumps”. In addition, in the data set with H9 ESC-derived NSCs [7], the “cell death (caspase 9 positive cells)” value is reported as “no significant amount of cell death”.
For the compound `C[C@H](NC(=O)[C@@H](O)c1cc(F)cc(F)c1)C(=O)N[C@@H]1C(=O)N(C)c2ccccc2-c2ccccc21` [LY411575, N-2((2S)-2-(3,5-difluorophenyl)-2-hydroxyethanoyl)-N1-((7S)-5-methyl-6-oxo-6,7-dihydro-5H-dibenzo[b,d]azepin-7-yl)-1-alaninamide], the “cell clumping vs control group” value in the data set with H9 ESC-derived NSCs [4] was “significant reduction in cell clumping”. The “percentage of cells co-stained positive” value in the data set on H9 ESC-derived NSCs [5] (at 0.25 micromolar) was found to be 64.7%.
Take `O=C(O)CC[C@H]1CC[C@@](c2cc(F)ccc2F)(S(=O)(=O)c2ccc(Cl)cc2)CC1` [MK-0752]: in the data set with H9 ESC-derived NSCs [8], the cell toxicity result was “cell toxicity”. Further, in the data set on H9 ESC-derived NSCs [4], the “cell clumping vs control group” value is “significant reduction in cell clumping”. Moreover, the “percentage of cells co-stained positive” value in the data set with H9 ESC-derived NSCs [5] (at 20 micromolar) amounted to 64.7%.
As to `C[C@H](NC(=O)Cc1cc(F)cc(F)c1)C(=O)N[C@H]1N=C(c2ccccc2)c2ccccc2N(C)C1=O` [YO-01027, (S,S)-2-[2-(3,5-difluorophenyl)-acetylamino]-N-(1-methyl-2-oxo-5-phenyl-2-,3-dihydro-1H-benzo[e][1,4]diazepin-3-yl)-propionamide], the “percentage of cells co-stained positive” value with H9 ESC-derived NSCs [5] (at 0.3 micromolar) was 73.4%.
